Test system: PSMA+HEK cells
Experiment: Luminescence ADCC reporter (CD16α activation) assay with mmAb
Format: cell-based, human
Conditions: antibody 10^−7-10^−9 M
Protocol: Covalent vs. non-covalent antibody recruitment were compared in functional immune assays. Activation of NK cell CD16α immune receptors was assessed via luminescence based ADCC assays. ADCC was quantified using the ADCC Reportor Bioassay kit (Promega G7010). All ADCC induced luminescence was measured on a SpectraMax i3 plate reader (Molecular Devices). The human IgG isotype control used was purchased from Jackson ImmunoResearch (009-000-003). The human IgG1 monoclonal anti-DNP antibody (mAb) was purchased from Acrobiosystems (DNP-M2). Human IgG from serum was purchased from Innovative Research ([…]1000MG). Anti-DNP depleted serum was made from human IgG from serum (Innovative Research). For PSMA competition controls, 2-PMPA was purchased from Sigma (SML1612). Hek-293T (PSMA+/−) cell lines were generously given by Dr. Cyril Barinka (Institute of Biotechnology CAS, Czech Republic). Ultra low IgG FBS was purchased from Fischer Scientific (A3381901). RPMI-1640 was purchased as a powder from Fischer Scientific (31800089) and resuspended. DMEM was purchased as a powder from Fischer Scientific (12800082) and resuspended. Pen/Strep was purchased from Fischer Scientific (15140-122). FBS was purchased from Fischer Scientific (12484-028). Zeocin was purchased from Fischer Scientific (R25001). HEK-PSMA cells were cultured in DMEM media with 2 mM L-glut, 1% Pen/Strep, 10% FBS, 50 ug/mL Zeocin. HEK cells were cultured in DMEM media with 2 mM L-glut, 1% Pen/Strep, 10% FBS.
Preparation of antibody-CIR/ARM stocks were mixed overnight prior to addition to the ADCC plate. In the case of mmAb and mAb, incubation was carried out at 600 nM antibody and 1.2 μM CIR or ARM. In the case of IgG from serum, incubation was completed at 230 μM antibody and 8.7 μM CIR or ARM. In all cases, DMSO was kept close to 1%. After the overnight incubation, a dilution series was completed on the antibody-CIR/ARM stocks in RPMI (1% DMSO). […] 75 μL of Bio-Glo Luciferase Assay Reagent was added to each well, and luminescence was quantified using the SpectraMax i3 plate reader. […]

## O=C(O)CC[C@H](NC(=O)N[C@@H](CCCCNC(=O)NCCOCCOCCOCCOCCOCCOCCOCCOC(=O)NCCOCCn1cc(CNc2ccc([N+](=O)[O-])cc2[N+](=O)[O-])nn1)C(=O)O)C(=O)O [ARM 12, reference compound]
  CD16α based target immune recognition: largely unable to mediate immune recognition of target HEK cells

## O=C(O)CC[C@H](NC(=O)N[C@@H](CCCCNC(=O)NCCOCCOCCOCCOCCOCCOCCOCCOC(=O)n1cnc(CCn2cc(CNc3ccc([N+](=O)[O-])cc3[N+](=O)[O-])nn2)c1)C(=O)O)C(=O)O [CIR 5]
  CD16α based target immune recognition: robust target immune recognition

— patent US11827624B2, “Covalent immune recruiter compounds for immune cell recognition and associated uses” (McMaster University, priority 2020, dated 2023)
